ChEMBL document CHEMBL4118189, “Discovery of novel N-hydroxy-2-arylisoindoline-4-carboxamides as potent and selective inhibitors of HDAC11” (Bioorg Med Chem Lett, 2018)
Converted amounts (≈) assume the structure as drawn.

Legend:
[1] = Kinetic solubility of the compound at pH 7.4; format: physicochemical; settings: buffer, read-out: Kinetic_solubility
Histone deacetylase 11 = target: T1, Histone deacetylase 11 (Homo sapiens, UniProt Q96DB2); test: Inhibition of NanoLuc-tagged HDAC11 (unknown origin) by BRET assay
T1 sequence (Q96DB2 whole entry): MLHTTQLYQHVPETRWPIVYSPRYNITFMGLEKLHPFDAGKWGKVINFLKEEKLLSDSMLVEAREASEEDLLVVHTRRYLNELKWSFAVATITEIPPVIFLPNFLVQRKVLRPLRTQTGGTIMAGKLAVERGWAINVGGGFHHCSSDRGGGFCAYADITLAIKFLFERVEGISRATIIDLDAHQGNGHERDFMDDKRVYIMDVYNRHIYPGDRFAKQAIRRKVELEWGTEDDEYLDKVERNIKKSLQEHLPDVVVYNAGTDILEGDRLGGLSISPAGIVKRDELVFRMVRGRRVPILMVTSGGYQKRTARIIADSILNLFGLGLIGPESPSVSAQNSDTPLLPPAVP

Histone deacetylase 3 = Histone deacetylase 3 (Homo sapiens, UniProt O15379); test: Inhibition of full length recombinant human HDAC3 using fluorescent-labeled peptide as substrate by electrophoretic mobility shift assay
Histone deacetylase 5 = Histone deacetylase 5 (Homo sapiens, UniProt Q9UQL6); test: Inhibition of full length recombinant human HDAC5 using fluorescent-labeled peptide as substrate by electrophoretic mobility shift assay
Histone deacetylase 7 = target: T2, Histone deacetylase 7 (Homo sapiens, UniProt Q8WUI4); test: Inhibition of full length recombinant human HDAC7 using fluorescent-labeled peptide as substrate by electrophoretic mobility shift assay
T2 sequence (Q8WUI4 whole entry): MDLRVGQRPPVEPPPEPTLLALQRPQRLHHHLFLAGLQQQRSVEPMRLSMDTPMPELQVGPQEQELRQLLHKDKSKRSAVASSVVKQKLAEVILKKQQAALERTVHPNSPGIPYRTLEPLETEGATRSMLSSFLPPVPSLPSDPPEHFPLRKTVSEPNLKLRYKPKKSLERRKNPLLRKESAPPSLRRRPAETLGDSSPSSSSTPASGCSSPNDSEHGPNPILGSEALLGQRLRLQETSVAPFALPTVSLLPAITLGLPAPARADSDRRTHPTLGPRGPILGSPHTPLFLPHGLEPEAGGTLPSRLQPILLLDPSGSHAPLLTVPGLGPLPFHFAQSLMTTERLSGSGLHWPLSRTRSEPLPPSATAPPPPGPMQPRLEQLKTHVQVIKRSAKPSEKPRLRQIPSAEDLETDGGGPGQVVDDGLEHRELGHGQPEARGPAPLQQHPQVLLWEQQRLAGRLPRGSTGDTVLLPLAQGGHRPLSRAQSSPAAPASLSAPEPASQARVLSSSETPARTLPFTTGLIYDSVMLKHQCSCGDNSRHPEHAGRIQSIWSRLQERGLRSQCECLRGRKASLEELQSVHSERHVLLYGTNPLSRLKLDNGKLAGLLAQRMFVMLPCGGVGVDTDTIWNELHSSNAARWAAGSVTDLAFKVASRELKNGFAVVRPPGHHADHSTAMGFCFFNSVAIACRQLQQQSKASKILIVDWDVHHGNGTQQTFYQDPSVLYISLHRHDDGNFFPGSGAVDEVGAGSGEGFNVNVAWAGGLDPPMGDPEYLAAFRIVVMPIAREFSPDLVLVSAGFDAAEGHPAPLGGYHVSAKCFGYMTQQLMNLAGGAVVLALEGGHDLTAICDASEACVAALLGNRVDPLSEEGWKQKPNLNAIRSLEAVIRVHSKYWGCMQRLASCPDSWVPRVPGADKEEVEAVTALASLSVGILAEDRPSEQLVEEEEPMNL

Histone deacetylase 9 = Histone deacetylase 9 (Homo sapiens, UniProt Q9UKV0); test: Inhibition of full length recombinant human HDAC9 using fluorescent-labeled peptide as substrate by electrophoretic mobility shift assay
Histone deacetylase 9, sequence (Q9UKV0 whole entry): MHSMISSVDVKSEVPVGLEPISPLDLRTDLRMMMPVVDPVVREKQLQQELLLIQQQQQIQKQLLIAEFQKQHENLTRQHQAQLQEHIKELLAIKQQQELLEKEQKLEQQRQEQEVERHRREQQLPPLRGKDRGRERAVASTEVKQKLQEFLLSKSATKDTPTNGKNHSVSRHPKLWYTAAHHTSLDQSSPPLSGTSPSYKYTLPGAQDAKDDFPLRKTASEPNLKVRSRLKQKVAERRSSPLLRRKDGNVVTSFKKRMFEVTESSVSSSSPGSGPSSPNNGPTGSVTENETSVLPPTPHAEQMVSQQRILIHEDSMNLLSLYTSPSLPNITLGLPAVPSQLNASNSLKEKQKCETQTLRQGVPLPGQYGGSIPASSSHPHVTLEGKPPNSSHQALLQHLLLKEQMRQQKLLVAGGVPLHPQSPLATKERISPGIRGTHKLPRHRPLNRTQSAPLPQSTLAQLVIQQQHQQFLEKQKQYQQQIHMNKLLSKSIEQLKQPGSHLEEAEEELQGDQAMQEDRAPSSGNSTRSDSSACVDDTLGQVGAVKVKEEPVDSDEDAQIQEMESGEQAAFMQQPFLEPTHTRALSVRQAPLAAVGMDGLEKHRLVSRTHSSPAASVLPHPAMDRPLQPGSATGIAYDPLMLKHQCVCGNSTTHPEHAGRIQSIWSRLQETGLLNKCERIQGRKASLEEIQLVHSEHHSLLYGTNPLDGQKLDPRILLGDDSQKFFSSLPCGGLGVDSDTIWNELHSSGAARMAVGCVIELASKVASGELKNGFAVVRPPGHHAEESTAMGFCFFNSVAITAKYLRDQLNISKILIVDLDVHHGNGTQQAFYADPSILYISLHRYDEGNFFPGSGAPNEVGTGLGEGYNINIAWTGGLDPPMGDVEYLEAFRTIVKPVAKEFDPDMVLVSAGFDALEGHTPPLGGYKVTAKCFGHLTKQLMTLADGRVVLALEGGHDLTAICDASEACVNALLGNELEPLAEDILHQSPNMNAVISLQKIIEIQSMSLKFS

Histone deacetylase 3, sequence (O15379 whole entry): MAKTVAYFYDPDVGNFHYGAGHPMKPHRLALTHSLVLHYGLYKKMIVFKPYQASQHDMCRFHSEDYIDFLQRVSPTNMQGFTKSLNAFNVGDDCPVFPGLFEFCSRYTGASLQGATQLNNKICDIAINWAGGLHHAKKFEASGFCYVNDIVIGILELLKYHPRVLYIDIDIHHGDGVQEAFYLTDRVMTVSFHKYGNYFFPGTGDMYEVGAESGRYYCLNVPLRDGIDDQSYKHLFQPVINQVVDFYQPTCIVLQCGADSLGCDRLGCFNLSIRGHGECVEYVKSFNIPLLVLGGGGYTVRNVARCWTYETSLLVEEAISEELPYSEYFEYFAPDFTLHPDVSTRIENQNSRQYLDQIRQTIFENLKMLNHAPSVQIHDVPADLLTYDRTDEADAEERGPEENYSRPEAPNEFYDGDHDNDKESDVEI
Histone deacetylase 5, sequence (Q9UQL6 whole entry): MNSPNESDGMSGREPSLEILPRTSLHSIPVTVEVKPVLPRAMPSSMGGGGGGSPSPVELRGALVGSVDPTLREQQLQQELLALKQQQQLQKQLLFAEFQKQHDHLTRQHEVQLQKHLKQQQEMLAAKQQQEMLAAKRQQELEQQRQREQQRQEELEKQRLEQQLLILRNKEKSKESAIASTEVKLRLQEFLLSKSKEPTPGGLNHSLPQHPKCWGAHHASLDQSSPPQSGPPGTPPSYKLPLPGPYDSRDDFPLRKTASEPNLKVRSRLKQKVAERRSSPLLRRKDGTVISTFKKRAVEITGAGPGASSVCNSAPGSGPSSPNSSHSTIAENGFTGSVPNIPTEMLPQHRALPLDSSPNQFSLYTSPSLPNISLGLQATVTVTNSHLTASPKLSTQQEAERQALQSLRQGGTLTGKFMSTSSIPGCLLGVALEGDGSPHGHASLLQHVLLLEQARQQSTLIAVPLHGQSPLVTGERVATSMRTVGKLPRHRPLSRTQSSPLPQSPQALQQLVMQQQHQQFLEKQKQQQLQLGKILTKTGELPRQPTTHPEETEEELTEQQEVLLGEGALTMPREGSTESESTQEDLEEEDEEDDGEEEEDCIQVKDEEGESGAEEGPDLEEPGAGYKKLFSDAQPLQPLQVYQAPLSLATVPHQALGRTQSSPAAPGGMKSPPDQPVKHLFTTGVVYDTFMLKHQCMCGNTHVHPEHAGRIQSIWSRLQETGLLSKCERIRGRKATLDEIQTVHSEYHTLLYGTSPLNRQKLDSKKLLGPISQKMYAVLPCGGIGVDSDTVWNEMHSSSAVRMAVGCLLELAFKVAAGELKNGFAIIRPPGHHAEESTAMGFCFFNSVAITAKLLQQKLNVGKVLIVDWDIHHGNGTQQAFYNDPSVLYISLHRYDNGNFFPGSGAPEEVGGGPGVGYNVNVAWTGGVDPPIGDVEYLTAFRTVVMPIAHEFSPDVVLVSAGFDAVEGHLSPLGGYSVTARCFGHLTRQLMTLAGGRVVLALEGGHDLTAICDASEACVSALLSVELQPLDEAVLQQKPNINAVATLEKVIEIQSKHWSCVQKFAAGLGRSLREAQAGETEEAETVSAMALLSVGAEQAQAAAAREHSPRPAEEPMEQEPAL

solubility kinetic [1]: 0.3 µM (≈ 0.101 µg/mL) | IC50 (Histone deacetylase 11): > 25 µM | IC50 (Histone deacetylase 3): > 10 µM | IC50 (Histone deacetylase 5): > 10 µM | IC50 (Histone deacetylase 7): > 10 µM | IC50 (Histone deacetylase 9): > 10 µM
Compound: CC1(C)c2cccc(C(N)=O)c2CN1c1cnc(C(F)(F)F)cn1
